Laboratory results published in US20240299379A1, “COMPOSITIONS OF CLOFAZIMINE AND AMIKACIN FOR PULMONARY ADMINISTRATION IN THE TREATMENT OF RESPIRATORY DISEASES” (BOARD OF REGENTS, THE UNIVERSITY OF TEXAS SYSTEM, priority 2021, published 2024).
Where a name gives a salt, the structure may show the parent alone. Blank lines part the entries; values can stand above or below the molecule they belong to.

Legend:
[1] = Aerosol performance of composite spray dried particles, Next Generation Impactor, medium resistance RS01 DPI; assay type: physicochemical; conditions: spray dried powder, RS01 device
Method: (§1) The aerosol performance of the composite spray dried particles was determined using cascade impaction, specifically as Next Generation Impactor, as prescribed by the United States Pharmacopeia chapter 601. For these studies, a medium resistance Model 7 RS01 dry powder inhaler (DPI) manufactured by Berry Global Osnago was utilized. 20 mg of the spray dried powders (1:2 CFZ-AMK, 1:4 CFZ-AMK, or 1:8 CFZ-AMK) or 10 mg of air jet milled clofazimine or spray dried amikacin sulfate alone was loaded into a size 3 hydroxypropyl methylcellulose (HPMC) capsule. For these studies, spray dried clofazimine was not tested due to the extremely low powder yield and the tendency of the particles to dry as large needle structures. The device was actuated at an airflow rate to induce a 4 kPa pressure drop (i.e., 80 L/min) or 2 kPa pressure drop (i.e., 56.6 L/min) through the device for period of time sufficient to draw 4 L of air through the apparatus. To reduce particle bounce and re-entrainment, the NGI plates were coated with 1% (v/v) glycerin in ethanol and allowed to dry prior to performing the experiment. After actuation, powder was collected from the capsule, device, induction port, and stages of the Next Generation Impactor by adding a volume of 75/25 acetonitrile/water containing 0.16 mg/mL polysorbate 80 that was sufficient to dissolve the deposited powder. Phase separation of the solution into an organic phase containing clofazimine and an aqueous phase containing amikacin was induced by adding a volume of 5 M ammonium acetate equivalent to 16.7% of the original solution volume. The organic and aqueous phases were analyzed using high pressure liquid chromatography and concentration of each drug was quantified using a previously prepared standard curve.
(§2) Stage 1-7 cut-off diameters were determined using equation 1 and MOC cut-off diameters were determined using equation 2.
(§3) where D50,Q is the cutoff diameter at the flow rate, Q, and the subscript, n, refers to the archival reference value for Qn=60 L/min, and the values for the exponent, x, were determined by the archival NGI stage cut size-flow rate calculations, as determined by Marple et al.
(§4) The emitted fraction (EF) was calculated as the total drug emitted from the device as a percentage of the total mass of drug collected (i.e., recovered dose). The respirable fraction that was less than 5 μm aerodynamic diameter and less than 3 μm aerodynamic diameter corresponded to the percentage of the recovered dose predicted to have the aerodynamic diameter below 5 μm and 3 μm. The respirable fraction values were interpolated from a graph with the cumulative percentage of the emitted dose deposited downstream from an NGI stage as the ordinate and the particle cutoff size of that stage as the abscissa. For each sample, the mass median aerodynamic diameter (MMAD), which represents the mass-based median point of the aerodynamic particle size distribution (APSD), and geometric standard deviation (GSD), which represents the spread of the APSD, were determined by plotting the cumulative percentage of mass less than the stated aerodynamic size cut (expressed as Probits) against the aerodynamic diameter (log scale). Distributions were log normal. A linear regression was performed to determine the aerodynamic diameters corresponding to the 50% percentile (Probit 5) to determine the MMAD, and the aerodynamic diameters corresponding the 15.87% percentile (Probit 4) and 84.13% percentile (Probit 6) to calculate the GSD. The results of this analysis are shown in Tables 11-14 and FIG. 11, and are presented as mean±standard deviation (n=3)

[2] = cited from earlier work
[3] = Geometric particle size distribution by laser diffraction (Sympatec HELOS, RODOS dry dispersion); assay type: physicochemical; conditions: micronized with Model 00 Jet-O-Mizer Air Jet Mill
Method: PSD was calculated using Fraunhofer theory using the Sympatec laser diffractor. […] Measurements were taken every 5 msec […] following powder dispersion. Measurements that were between 5-25% optical density were averaged to determine particle size distribution. Data was analyzed using HELOS software version 5.6.0.0 with an HRLD model to convert the scattering pattern to a particle size distribution.

[4] = Solubility of the drug substances in solvents; assay type: physicochemical; conditions: ethanol and isopropanol, organic solvent or mixture
[5] = in vivo, po; cited from earlier work
[6] = in vivo, po; cited from earlier work; remark: listed apart in the source
[7] = tested on: Mab-infected THP-1 macrophages; assay: In vitro efficacy study, micronized CFZ particles added to media containing AMK; assay type: cell-based, Mycobacterium abscessus (Mab)
[8] = Aerosol performance of clofazimine and amikacin co-administered from dual chamber Dualhaler DPI, Next Generation Impactor; assay type: physicochemical; conditions: Dualhaler device
[9] = Aerosol performance of physical blends, Next Generation Impactor, medium resistance RS01 DPI; assay type: physicochemical; conditions: RS01 device
Method: as §1, with “physically blended mixtures” for “composite spray dried particles”, “physical blends (1:0.5 CFZ-AMK, 1:2” for “spray dried powders (1:2”, “air jet milled” for “spray dried”, “capsule.” for “capsule. For these studies, spray dried clofazimine was not tested due to the extremely low powder yield and the tendency of the particles to dry as large needle structures.”
as §2, §3
as §4, with “Table 5-8” for “Tables 11-14”, “2,” for “11,”

[10] = 4 kPa pressure drop, amikacin component
[11] = 4 kPa pressure drop, clofazimine component as titled (Table 13, reference Spray dried AMK-S alone)
[12] = 2 kPa pressure drop, clofazimine component
[13] = 4 kPa pressure drop, clofazimine component (Table 12)
[14] = 2 kPa pressure drop, amikacin component as titled (Table 18, reference Jet milled CFZ alone)
[15] = 4 kPa pressure drop, clofazimine component
[16] = 2 kPa pressure drop, amikacin component as titled (Table 8, reference Jet milled CFZ alone)
[17] = 2 kPa pressure drop, amikacin component (Table 17)
[18] = 2 kPa pressure drop, amikacin component (Table 7)

EF (emitted fraction) [1, 10]: 61.9 ± 8.6%
MMAD [1, 10]: 6.23 ± 0.97 μm
RF < 3 μm [1, 10]: 44.5 ± 3.6%
RF < 5 μm [1, 10]: 50.8 ± 5.8%
EF (emitted fraction) [1, 11]: 43.3 ± 8.7%
MMAD [1, 11]: 11.29 ± 2.93 μm
RF < 3 μm [1, 11]: 31.8 ± 6.9%
RF < 5 μm [1, 11]: 37.6 ± 6.2%
Structure (SMILES): NCC[C@H](O)C(=O)NC1C[C@H](N)[C@@H](O[C@H]2O[C@H](CN)[C@H](O)[C@H](O)[C@H]2O)[C@H](O)[C@H]1O[C@H]1O[C@H](CO)[C@@H](O)[C@H](N)[C@H]1O (stereo partly drawn) [Spray dried AMK-S alone, (2S)-4-amino-N-[(2S,3S,4R,5S)-5-amino-2-[(2S,3R,4S,5S,6R)-4-amino-3,5-dihydroxy-6-(hydroxymethyl)oxan-2-yl]oxy-4-[(2R,3R,4S,5R,6R)-6-(aminomethyl)-3,4,5-trihydroxy-oxan-2-yl]oxy-3-hydroxy-cyclohexyl]-2-hydroxybutanamide]

X50 particle diameter [3]: 2.39 μm
X90 particle diameter [3]: 5.29 μm
solubility [4]: ≤ 800 µg/mL
Structure (SMILES): CC(C)N=c1cc2n(-c3ccc(Cl)cc3)c3ccccc3nc-2cc1Nc1ccc(Cl)cc1 [clofazimine, N,5-bis(4-chlorophenyl)-3-(1-methylethylimino)-5H-phenazin-2-amine]
Solubility in DMF and benzene ([2]; Merck Index): soluble
Solubility in acetone and ethyl acetate ([2]; Merck Index): sparingly soluble
Solubility in chloroform ([2]; Merck Index): 15 parts
Solubility in ethanol ([2]; Merck Index): 700 parts
Solubility in ether ([2]; Merck Index): 1000 parts
Solution concentration that can be formed in methanol ([2]; Sabnis et al., 2015): 0.1%
Solubility in water [2]: practically insoluble
Patient population reporting at least one adverse drug effect [5]: 47.5%
Duration of administration necessary to reach steady-state concentrations [6]: At least 30 days

EF (emitted fraction) [1, 12]: 80.7 ± 9.7%
MMAD [1, 12]: 10.08 ± 7.79 μm
RF < 3 μm [1, 12]: 37.5 ± 18.2%
RF < 5 μm [1, 12]: 51.0 ± 19.0%
EF (emitted fraction) [1, 13]: 76.2 ± 4.1%
MMAD [1, 13]: 5.36 ± 0.53 μm
RF < 3 μm [1, 13]: 47.4 ± 3.7%
RF < 5 μm [1, 13]: 58.8 ± 4.7%
EF (emitted fraction) [8, 14]: 41.2 ± 4.1%
RF < 3 μm [8, 14]: 19.8 ± 2.2%
RF < 5 μm [8, 14]: 26.1 ± 3.1%
EF (emitted fraction) [8, 15]: 44.9 ± 16.1%
RF < 3 μm [8, 15]: 25.1 ± 10.9%
RF < 5 μm [8, 15]: 30.8 ± 12.6%
EF (emitted fraction) [9, 16]: 80.7 ± 9.7%
MMAD [9, 16]: 10.08 ± 7.79 μm
RF < 3 μm [9, 16]: 37.5 ± 18.2%
RF < 5 μm [9, 16]: 51.0 ± 19.0%
EF (emitted fraction) [9, 15]: 76.2 ± 4.1%
MMAD [9, 15]: 5.36 ± 0.53 μm
RF < 3 μm [9, 15]: 47.4 ± 3.7%
RF < 5 μm [9, 15]: 58.8 ± 4.7%
Structure (SMILES): CC(C)N=c1cc2n(-c3ccc(Cl)cc3)c3ccccc3nc-2cc1Nc1ccc(Cl)cc1 [Jet milled CFZ alone, N,5-bis(4-chlorophenyl)-3-(1-methylethylimino)-5H-phenazin-2-amine]
Intracellular drug accumulation with increasing doses ([7]; increasing doses of micronized CFZ): notable increase in intracellular drug accumulation
Change in intracellular bacterial burden with increasing doses ([7]; increasing doses of micronized CFZ, with AMK): no statistically significant changes
Intracellular Mab bacilli compared to the use of AMK alone ([7]; micronized CFZ particles added to media containing 40 μg/mL AMK): statistically significant reduction

EF (emitted fraction) [8, 17]: 14.1 ± 23.7%
RF < 3 μm [8, 17]: 15.5 ± 2.4%
RF < 5 μm [8, 17]: 23.4 ± 4.6%
EF (emitted fraction) [8, 10]: 47.8 ± 13.8%
RF < 3 μm [8, 10]: 22.6 ± 1.4%
RF < 5 μm [8, 10]: 28.6 ± 1.5%
EF (emitted fraction) [9, 18]: 77.2 ± 11.2%
MMAD [9, 18]: 8.23 ± 0.57 μm
RF < 3 μm [9, 18]: 30.4 ± 3.4%
RF < 5 μm [9, 18]: 48.3 ± 3.8%
EF (emitted fraction) [9, 10]: 82.1 ± 1.2%
MMAD [9, 10]: 9.07 ± 1.76 μm
RF < 3 μm [9, 10]: 28.2 ± 4.9%
RF < 5 μm [9, 10]: 40.8 ± 7.2%
Structure (SMILES): NCC[C@H](O)C(=O)NC1C[C@H](N)[C@@H](O[C@H]2O[C@H](CN)[C@H](O)[C@H](O)[C@H]2O)[C@H](O)[C@H]1O[C@H]1O[C@H](CO)[C@@H](O)[C@H](N)[C@H]1O (stereo partly drawn) [Jet milled AMK-S alone, (2S)-4-amino-N-[(2S,3S,4R,5S)-5-amino-2-[(2S,3R,4S,5S,6R)-4-amino-3,5-dihydroxy-6-(hydroxymethyl)oxan-2-yl]oxy-4-[(2R,3R,4S,5R,6R)-6-(aminomethyl)-3,4,5-trihydroxy-oxan-2-yl]oxy-3-hydroxy-cyclohexyl]-2-hydroxybutanamide]

X50 particle diameter [3]: 4.04 μm
X90 particle diameter [3]: 7.72 μm
Structure (SMILES): NCC[C@H](O)C(=O)NC1C[C@H](N)[C@@H](O[C@H]2O[C@H](CN)[C@H](O)[C@H](O)[C@H]2O)[C@H](O)[C@H]1O[C@H]1O[C@H](CO)[C@@H](O)[C@H](N)[C@H]1O (stereo partly drawn) [AMK sulfate, (2S)-4-amino-N-[(2S,3S,4R,5S)-5-amino-2-[(2S,3R,4S,5S,6R)-4-amino-3,5-dihydroxy-6-(hydroxymethyl)oxan-2-yl]oxy-4-[(2R,3R,4S,5R,6R)-6-(aminomethyl)-3,4,5-trihydroxy-oxan-2-yl]oxy-3-hydroxy-cyclohexyl]-2-hydroxybutanamide]
